The subject of the assay is Ba/F3 LMNA-NTRK1-G667C cells. Put plainly: Proliferation of Ba/F3 LMNA-NTRK1-G667C cells (CellTiter-Glo). Type of assay: cell-based, mouse. The note with it: Mus musculus. The text has this: Ba/F3 LMNA-NTRK1-G667C is a stable transgenic cell line constructed by KYinno Biotechnology Co., Ltd. on mouse primary B cell Ba/F3 wherein NTRK1 has a mutation of G to Cat position 667 and is highly expressed and fused with LMNA to form LMNA-NTRK1-G667C. • [Test method]: Promega's CellTiter-Glo® Luminescent Cell Viability Assay kit was used to evaluate the inhibitory activity of the compounds on the proliferation of Ba/F3 LMNA-NTRK1-G667C cells. • [Instrument]: Spectramax M3 multifunctional microplate reader from Molecular Devices. • [Test materials]: Ba/F3 LMNA-NTRK1-G667C cell line (constructed by KYinno Co., Ltd. (Beijing)), 96-well transparent flat-bottomed black-walled cell culture plate (Corning, cat #3603), RPMI-1640 media (GE, cat #SH30027.01), fetal bovine serum FBS (Thermo Fisher, cat #10099-141), CellTiter-Glo® Luminescent Cell Viability Assay kit (Promega, cat #G7572), PBS (Solarbio, cat #P1020), DMSO (Sigma, cat #D2650). • [Experimental procedure]: When resuscitating Ba/F3 LMNA-NTRK1-G667C cells, the freezing tube was quickly shaken in a 37° C. water bath to melt within 1 minute. The thawed cell suspension was mixed uniformly with RPMI1640 medium containing 10% FBS, centrifuged at 1000 rpm for 5 minutes, and the supernatant discarded. 5 mL of complete medium (RPMI1640 medium with 10% FBS) was taken to resuspend the cell pellets, charged into a cell culture flask with a bottom area of 25 cm^2, and incubated in a cell incubator at 37° C., 95% humidity and 5% CO2. Cells were allowed to passage when the number of cells reached about 10^6 cells/mL. For cell passage, the old cell suspension was directly pipetted evenly, 1/5 of the cell suspension was kept, 4 mL of new complete medium was added, after pipetting evenly, the cell flask was placed in the cell incubator for further culturing. Cell plating was performed when the number of cells reached about 10^6 cells/mL again. For cell plating, 1/5 of the cell suspension was kept for further culturing as in the cell passage method, and the remaining 4/5 of the cell suspension was placed in a 15 mL centrifuge tube, detected for cell viability by Trypan blue exclusion method to ensure that cell viability was above 90%. A cell suspension with a density of 5.56×10^4 viable cells/mL was prepared with complete medium, and 90 μL of such cell suspension was added to a 96-well cell culture plate to obtain the cell density of 5000 viable cells/mL in the cell culture plate. A control group containing no cells, no compound and only complete medium (i.e. culture medium control) and a control group containing no compound but containing cells (i.e. cell control) were set. The cell plate was placed in a cell incubator overnight. The 10 mM compound stock solution in DMSO was first serially diluted with DMSO at a dilution factor of 3.16 times, to obtain 9 concentrations, and the 10th concentration was set as DMSO control without compound. Then, PBS was used to dilute the DMSO solutions of compounds of different concentrations, at a dilution factor of 100 times, so that the DMSO concentration in the compound solution of each concentration was 1%. Finally, 10 μL of each of the above solutions was added to the corresponding cell culture plate, so that the initial compound concentration was 10 μM, with the remaining concentrations being successively diluted at a dilution factor of 3.16 times, and the DMSO content in the cell culture plate was 0.1%. The cell plate was placed in a cell incubator and cultured for 72 hours. For endpoint detection, the CellTiter-Glo reagent was melted, and the cell plate was moved to room temperature to equilibrate for 30 minutes, added with 100 μL of CellTiter-Glo for each well, and shaken on an orbital shaker for 5 minutes to fully lyse the cells. The plate was kept at room temperature for 20 minutes to stabilize the luminescence signal, and the luminescence value of each well was scanned with a multi-functional microplate reader at full wavelength. • [Test samples] […]
(In general: ATP-based viability assays read luminescence as a measure of living cells.)

The mark [1] stands for this setting: BaF3, Table 9, read-out: Ba/F3 LMNA-NTRK1-G667C cell proliferation inhibitory activity (IC50).
[2] abbreviates: BaF3, 72 h, Table 4, 72 hours, read-out: Ba/F3 LMNA-NTRK1-G667C, IC50.

Like-named read-outs stand apart in the source and are kept apart here.

Turning to `CCOc1ccc(C(=O)Nc2ccc(Oc3cc4cnn5c4c(c3-c3cn[nH]c3)CC5)c(F)c2)c(=O)n1-c1ccc(F)cc1` [Example 32, N-(4-((5-(1H-pyrazol-4-yl)-6,7-dihydropyrrolo[3,2,1-hi]-indazol-4-yl)oxy)-3-fluorophenyl)-6-ethoxy-1-(4-fluorophenyl)-2-oxo-12-dihydropyridine-3-carboxamide], under setting [1], the IC50 turned out to be 19 nM.
For the compound `CC(C)Oc1ccc(C(=O)Nc2ccc(Oc3cc4cnn5c4c(c3-c3cn[nH]c3)CC5)c(F)c2)c(=O)n1-c1ccc(F)cc1` [Example 34, N-(4-((5-(1H-pyrazol-4-yl)-6,7-dihydropyrrolo[3,2,1-hi]-indazol-4-yl)oxy)-3-fluorophenyl)-1-(4-fluorophenyl)-6-isopropoxy-2-oxo-12-dihydropyrndine-3-carboxamide], the IC50 under setting [1] stood at 23.7 nM.
As for `O=C(Nc1cnn2ccc(N3CCC[C@@H]3c3cc(F)ccc3F)nc12)N1CC[C@H](O)C1` [LOXO-101, Larotrectinib, reference compound], the IC50 under setting [2] was 2410 nM.
On to `Cc1ccc(C(=O)Nc2ccc(Oc3cc4cnn(C)c4cc3-c3cn[nH]c3)c(F)c2)c(=O)n1-c1ccc(F)cc1` [Merestinib, reference compound], for which the IC50 came out at 1.1 nM under setting [2]; 1 nM (BaF3, Table 4-1, separate test, read-out: Ba/F3 LMNA-NTRK1-G667C, IC50); 14.1 nM (BaF3, Table 4-2, separate test, read-out: Ba/F3 LMNA-NTRK1-G667C, IC50).

(Values after US11952364B2, “TRK inhibitors useful as anticancer drugs” (TYLIGAND BIOSCIENCE (SHANGHAI) LIMITED, priority 2018, dated 2024).)
